# In US7807654B2, “Compositions and methods for treatment of mitochondrial diseases” (Wellstat Therapeutics Corporation, priority 1998, dated 2010):
# Experiments:
# [1] = test system: MPTP treated mice; test: MPTP model of Parkinson's disease, first study
# [2] = test system: MPTP treated mice; test: MPTP model of Parkinson's disease, second study; assay type: in vivo, C57/BL6 mice; conditions: MPTP b.i.d. for 2 days, sacrificed on day 9, mean ± SEM
# Protocol: A second study using MPTP (25 mg/kg i.p. b.i.d. for 2 days) was performed. […] TAU or vehicle was given orally (dose of TAU=4 g/kg bw b.i.d.) starting the day before MPTP administration and ending on day 8. Mice were sacrificed on day 9.
# [3] = molecular target: cytochrome oxidase (Complex IV) (Homo sapiens, UniProt P00395); conditions: Brown G C, Mol. Cell. Biochem. 174:189-192, 1997; cited from earlier work
# [4] = test system: 3NP treated mice; test: 3NP model with TAU, creatine or coenzyme Q10: mortality and body weight; assay type: in vivo, CD-1 mice; conditions: for mortality due to 3NP treatment: experiments 1 and 2 (FIGS. 1 and 2), 6% TAU, 2% creatine, coenzyme Q10 200 mg/kg chow
# Protocol: (§1) Retired male CD-1 mice, 7-9 months of age, (Strain: Cr:NIH (S); Source: NCI) weighing 30-40 g were housed singly throughout the study. The animals were kept on a 12-hour light/dark cycle, with food and water continuously available. The animals were acclimated to our facility for seven days before experimentation. The mice were randomly assigned treatment groups.
# The mice were given 3NP at a dose of 40, 40, 50, 50, 60 and 60 mg/kg i.p. on days 1-6 and 50 mg/kg i.p. on days 5-12.
# (§2) The mice were given 3NP at a dose of 40, 40, 50, 50, 60 and 60 mg/kg i.p. on days 1-6 and 50 mg/kg i.p. on days […] was made up at 4, 5 or 6.0 mg/ml in sterile water (pH to 7.4 with 1.0 NaOH) and 0.1 ml/10 g BW was given (i.p) to each mouse at 3-4 PM.
# (§3) The dosing of TAU (Nagase & Co., Ltd., Chemicals Second Division, 5-1, Nihonbashi-Kobunacho, Chuo-Ku, Tokyo 103, Japan; Lot 103 H 0060) was mixed into the rodent chow at 6% weight/weight. Creatine (Sigma) was mixed into the chow at 2% (weight/weight) that is previously reported to be the optimal dose (Matthews, Yang et al. 1998). Coenzyme Q10 (Sigma) was also provided in the chow at a dose 200 mg/kg chow) previously shown to be effective (Matthews, Yang et al. 1998).
# • n=9-12/group • Vehicle+Vehicle • Vehicle+3NP • TAU+3NP • Creatine+3NP • TAU and Creatine+Vehicle
# • (n=8-10/group) • Vehicle+Vehicle • Vehicle+3NP • TAU+3NP • Coenzyme Q10+3NP • TAU and Coenzyme Q10+Vehicle
# • (n=8-10/group) • Vehicle+Vehicle • Vehicle+3NP • 8% TAU+Vehicle • 2% TAU+3NP • 4% TAU+3NP • 8% TAU+3NP
# Data were analyzed by one- or two-way ANOVA followed by comparison of treatments by the Tukey test. Data are represented as mean±SEM.
# [5] = test system: 3NP treated mice; test: 3NP model with TAU, creatine or coenzyme Q10: locomotor activity; assay type: in vivo, CD-1 mice
# Protocol: as §1, §2
# as §3, with “Coenzyme Q10 (Sigma) was also provided in the chow at a dose 200 mg/kg chow) previously shown to be effective (Matthews, Yang et al. 1998).” left out
# The Photobeam Activity System (San Diego Instruments, San Diego, Calif.) was used to measure spontaneous activity. […] Spontaneous activity was quantified by placing mice in the Photobeam Activity System for a period of 30 min. […]
# (§4) Data were analyzed by one- or two-way ANOVA followed by comparison of treatments by the Tukey test. […]
# [6] = test system: 3NP treated mice; test: 3NP model with TAU, creatine or coenzyme Q10: rotarod; assay type: in vivo, CD-1 mice
# Protocol: as §1, §2
# The dosing of TAU (Nagase & Co., Ltd., Chemicals Second Division, 5-1, Nihonbashi-Kobunacho, Chuo-Ku, Tokyo 103, Japan; Lot 103 H 0060) was mixed into the rodent chow at 6% weight/weight. Creatine (Sigma) was mixed into the chow at 2% (weight/weight) that is previously reported to be the optimal dose (Matthews, Yang et al. 1998). Coenzyme Q10 (Sigma) was also provided in the chow at a dose 200 mg/kg chow) previously shown to be effective (Matthews, Yang et al. 1998). […]
# The Rotarod apparatus (San Diego Instruments, San Diego, Calif.) was used to measure fore- and hindlimb motor coordination and balance. […] The latency to fall off the rotarod within this time period was recorded. […]
# as §4
# [7] = test system: mice given intrastriatal QA; test: Quinolinic acid (QA) model of excitotoxicity; assay type: in vivo, Swiss mice; conditions: TAU 4 g/kg bw p.o. b.i.d.
# [8] = test system: taxol-treated mice; test: Taxol-induced neuropathy, tail-flick latency; assay type: in vivo; conditions: nine days after initiation of taxol 21.6 mg/kg/day i.p. for 6 days; oral triacetyluridine 4000 mg/kg b.i.d.
# Protocol: Two groups of 10 mice each were treated with taxol, 21.6 mg/kg/day for 6 consecutive days by intraperitoneal injection. An additional group of 10 mice received injections of vehicle alone. One of the groups of taxol-treated mice received oral triacetyluridine, 4000 mg/kg b.i.d. Nine days after the initiation of taxol treatments, nociceptive sensory deficits were tested by determining tail-flick latency after exposure of the tip of the tail to focused thermal radiation with an infrared heat lamp. In this system, delays in the tail-flick response to radiant heat correlate with sensory nerve deficits.
# [9] = test system: 3NP treated mice; test: 3-nitropropionic acid (3NP) model of Huntington's disease; assay type: in vivo, Swiss mice
# Protocol: Male 6-8 month old Swiss mice (National Cancer Institute; NCI, Frederick, Md.) were treated with 3NP (65 mg/kg i.p.) daily for 4 days to induce mortality, neuronal cell loss and behavioral impairment with n=8/group. […] On day 9, the mice were perfuse fixed with 10% buffered formalin and processed for silver staining to detect neuronal damage. […] There was no mortality in the 3NP+TAU group, but 3 of 8 mice died in the vehicle+3NP group.
# Behavioral scoring of the 3NP treated mice was to determine whether there was any motor impairment at anytime during the study. There were 88% of the control+3NP treated mice with behavioral impairment indicated by gross observation. A decreased incidence of impairment of only 50% was found in the TAU+3NP treated mice.
# The silver staining was analyzed by a pathologist blinded to the identity of tissue samples. […] However, in the control+3NP treated mice, silver staining of synaptic terminals in the striatal area (caudate/putamen area) and substantia nigra was pronounced. Silver impregnation of axons and/or synaptic terminals in the thalamus, deep mesencephalon and/or reticular formation (medulla) was also found in […] of the control+3NP treated mice. The substantia nigra projects to the striatum and these areas are especially vulnerable to damage by 3NP. The damage to the substantia nigra and striatum was prevented by TAU.
# [10] = test system: 3NP treated mice; test: 3-nitropropionic acid (3NP) model of epilepsy; assay type: in vivo, CD-1 mice
# Source text: 3-nitropropionic acid (3NP) is a mitochondrial toxin that acts by inhibiting Complex II of the respiratory chain; it is used to induce brain lesions similar to those characteristic of Huntington's disease. Seizures can also be induced by the use of 3NP as a model of epilepsy and mitochondrial dysfunction. Urbanska et al., Eur J Pharmacol, 359: 55-8 (1998). Male CD-1 mice (National Cancer Institute, NCI, Frederick. Md.) weighing between […] were used throughout. Mice were divided into groups of 5 and animals for each group were randomly chosen from different cages to avoid possible influence of age. The mice were maintained on a 12 hr light dark cycle with free access to water and food. All experiments were performed during the light period between 9:00 and 16:00 hr. Mice (n=17-20) were given 160 mg/kg 3NP and followed for seizures. 3NP was made up at 16 mg or 18 mg/ml in sterile water (pH: 7.4). 3NP was administered i.p. in a volume of 0.1 m/10 g body weight. […] Seizures were assessed similar to the methods previously described (Roberts & Keith, J Pharmacol Exp Ther, 270:505-11, 1994; Urbanska et al., Eur J Pharmacol, 359:55-8, 1998).
# Behavioral observations were performed within 120 min following application of 3-NP. Three major categories of convulsive seizure response were been considered and recorded: • 1. Clonic movements: the movements of the forelimbs accompanied by facial twitching; • 2. Explosive clonic movements: the movement of all four limbs involving running, jumping and bouncing; • 3. Tonic response: including tonic flexion and tonic extension of the all four limbs.
# Mortality rate was evaluated at 120 min after 3NP injection.
# [11] = test system: Normal human neural progenitor (NHNP) cells; test: Survival of differentiated NHNP cells without glucose and with azide (LDH/MTT); assay type: cell-based; conditions: no glucose, sodium azide 0, 2, 4 and 8 mM, 20 hours (FIG. 16)
# Protocol: NHNP cells derived from fetal brain were obtained from Clonetics (Walkersville, Md.; cat# CC-2598). The NHNP cells can be differentiated into neurons, glial cells, endothelial cells or microglial cells. […] Rockville, Md.) and hLIF (R&D System, Cat. 250-L-050. […] NHNP cells, passage 3-14 were plate in 96 well plates at 10 k cells/well and differentiated for 10 days. On the day of the experiment, cells were washed with DMEM without glucose, then incubated 20 hours in 100 μl of DMEM, no glucose and dialyzed 1% FBS (Life Technology Cat. 26300-061). […] Cell survival was assessed by the ratio of extracellular lactate dehydrogenase (LDH)/intracellular total dehydrogenase activity (MTT assay). Each condition was assayed in triplicate or quadruplicate. […] Extracellular LDH was assayed with 50 μl of supernatant using the Cytotoxicity Assay Kit (CytoTox 96 Non-Radioactive Cytotoxicity Assay; Promega, Cat. G1780. Madison, Wis.) according to kit instructions and read OD at 490 nm. After removing medium from the NHNP cells, 100 μl of assay medium (DMEM, no glucose and dialyzed 1% FBS) was added back to the cells. MTT was assayed in cells according to the kit instructions using Cell Proliferation Assay Kit (Promega, Cat. G4100. Madison, Wis.). Dye solution (15 μl) was added to each well and incubated 4 hours at 37° C. […] OD was read at 570 nm.
# [12] = 160 mg/kg 3NP i.p., TAU 4 g/kg p.o. 2 hours prior, within 120 min
smiles,measurement,setting,value
"CN1CC=C(c2ccccc2)CC1 [MPTP, 1-methyl-4-phenyl-1,2,3,6-tetrahydropyridine]",mortality,"[1]; MPTP 30 mg/kg i.p. b.i.d. for 1.5 days, TAU 4 g/kg p.o. b.i.d.",71.4%
same,"Striatal DA, MPTP-treated mice","[1]; first study, eight days after stopping MPTP, mean ± SEM",9.2 ± 2.2 ng DA/mg protein
same,"Striatal DA, MPTP-treated mice",[2],15.9 ± 2.2 ng DA/mg protein
[N]=O [Nitric oxide],concentration that inhibits cytochrome oxidase / mitochondrial respiration,[3],~1 µM
CN(CC(=O)O)C(=N)N [creatine],mortality due to 3NP treatment,[4],not
same,decrease in activity due 3NP treatment,[5]; experiment 1 (FIG. 7),not attenuated
same,impairment of rotarod performance at 5 RPM due to 3NP,[6]; experiment 1 (FIG. 10),significantly (p<0.01)
"O=C(O)c1cccnc1C(=O)O [QA, Quinolinic acid]",percent of mice surviving the 7 days,[7]; 50 nmoles QA bilaterally in striatum,64%
same,percent of mice surviving the 7 days,[7]; 100 nmoles QA bilaterally in striatum,4%
"CC(=O)O[C@H]1C(=O)[C@@]2(C)[C@H]([C@H](OC(=O)c3ccccc3)[C@]3(O)C[C@H](OC(=O)[C@H](O)[C@@H](NC(=O)c4ccccc4)c4ccccc4)C(C)=C1C3(C)C)[C@]1(OC(C)=O)CO[C@@H]1C[C@@H]2O [Taxol, taxol]",Tail flick latency,[8],16.0 ± 3.1 s
COC1=C(OC)C(=O)C(C/C=C(\C)CC/C=C(\C)CC/C=C(\C)CC/C=C(\C)CC/C=C(\C)CC/C=C(\C)CC/C=C(\C)CC/C=C(\C)CC/C=C(\C)CCC=C(C)C)=C(C)C1=O [coenzyme Q10],loss in body weight due to 3NP,[4]; experiment 2 (FIG. 5),attenuated
same,mortality due to 3NP treatment,[4],decreased mortality
same,decrease in activity due 3NP treatment,[5]; experiment 2 (FIG. 8),attenuated
same,impairment in rotarod performance at 10 RPM due 3NP treatment,[6]; experiment 2 (FIG. 11),attenuated
"O=C(O)CC[N+](=O)[O-] [3NP, 3-nitropropionic acid]",mortality due to 3NP,"[9]; 3NP 65 mg/kg i.p. daily for 4 days, TAU 4 g/kg bw p.o. b.i.d., n=8/group",3 of 8
same,mice with behavioral (motor) impairment by gross observation,[9]; at anytime during the study,88%
same,"mice with silver impregnation of axons and/or synaptic terminals in thalamus, deep mesencephalon and/or reticular formation",[9]; day 9,80%
same,"neuronal damage by silver staining (striatal area, substantia nigra)","[9]; day 9, blinded pathologist",pronounced
same,Latency to clonic seizure,"[10]; 160 mg/kg 3NP i.p., TAU 4 g/kg p.o. 2 hours prior, mean ± SEM",23.8 ± 0.7 min
same,% Clonic seizures,[10]; [12],90.0%
same,% Running seizures,[10]; [12],42.9%
same,% Mortality,[10]; at 120 min after 3NP injection,35%
"O=c1ccn([C@@H]2O[C@H](CO)[C@@H](O)[C@H]2O)c(=O)[nH]1 [Uridine, uridine]",uridine concentration required for robust protection of cells,[11],≥ 50 µM
